The record followed here is PubChem BioAssay (NCI).

Some test systems named below: MALME-3M melanoma; HOP-62 NSCLC; DU-145 prostate; SF-539 CNS; HCT-116 colon; A549 NSCLC; RPMI-8226 leukemia; A498 renal; OVCAR-4 ovarian; NCI/ADR-RES ovarian.
What all share (assay): DTP human tumour cell line panel, 48 h

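These data come from cells grown in 96-well plates and exposed to compound for 48 hours at five concentrations. At the GI50, growth is halved. TGI is the concentration that stops growth completely.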

As to `C=C(C(=O)OCC)C(=O)OCC`, the TGI in the assay on MALME-3M melanoma, with HOP-62 NSCLC, in the assay on DU-145 prostate, in the assay with SF-539 CNS, in the assay with HCT-116 colon and in the assay with A549 NSCLC was over 100 µM in each case. The same compound came in with a total growth inhibition concentration (TGI) with RPMI-8226 leukemia of over 100 µM.

In the case of `Nc1ccc(N=Nc2c(S(=O)(=O)O)cc3ccccc3c2S(=O)(=O)O)cc1`, the TGI in the assay with A498 renal, in the assay on MALME-3M melanoma, with HOP-62 NSCLC, in the assay with DU-145 prostate, in the assay on HCT-116 colon and in the assay on A549 NSCLC was over 100 µM each time. Besides, the total growth inhibition concentration (TGI) in the assay on OVCAR-4 ovarian and with NCI/ADR-RES ovarian was over 100 µM each time.

With `O=c1oc2cc(O)ccc2c(O)c1C(c1ccccc1)c1c(O)c2ccc(O)cc2oc1=O`, the TGI with A498 renal, in the assay on MALME-3M melanoma, in the assay with HOP-62 NSCLC, with DU-145 prostate, with SF-539 CNS and in the assay with HCT-116 colon was over 100 µM throughout. The TGI with A549 NSCLC, in the assay on OVCAR-4 ovarian and in the assay with NCI/ADR-RES ovarian was over 100 µM each time.

Take `O=C1CC2(CCC(O)(c3ccc4ccccc4c3)C(C(=O)c3ccc4ccccc4c3)C2)C(=O)c2ccccc2N1` (configuration not stated): the TGI in the assay with A498 renal, in the assay with MALME-3M melanoma, with HOP-62 NSCLC, with DU-145 prostate, in the assay with SF-539 CNS and with HCT-116 colon was over 100 µM each time. For the same compound, the concentration for total growth inhibition (TGI) with A549 NSCLC and with NCI/ADR-RES ovarian was over 100 µM in each case.

With `O=C1CCC(c2ccccc2)=NN1c1nsc2ccccc12`, the total growth inhibition concentration (TGI) in the assay on HOP-62 NSCLC, in the assay on SF-539 CNS, in the assay with HCT-116 colon, in the assay on A549 NSCLC, with OVCAR-4 ovarian and in the assay on RPMI-8226 leukemia was over 100 µM in each case.

With `O=C(O)C(Cl)(Cl)Cl`, the TGI in the assay on MALME-3M melanoma, in the assay with SF-539 CNS, in the assay with HCT-116 colon, with A549 NSCLC, with OVCAR-4 ovarian and with RPMI-8226 leukemia was over 100 µM each time.

For the compound `CCCCCCCCCCCCCCCCNc1cccc2ccccc12`, the concentration for total growth inhibition (TGI) with MALME-3M melanoma, in the assay on HOP-62 NSCLC, with SF-539 CNS, in the assay with HCT-116 colon, with A549 NSCLC and in the assay with RPMI-8226 leukemia was over 100 µM each time.

`C[n+]1c(/C=C/c2c(O)ccc3ccccc23)ccc2ccccc21`: the GI50 in the assay with A498 renal was 2.34 µM; with MALME-3M melanoma, 5.3 µM; with HOP-62 NSCLC, 6.25 µM; with DU-145 prostate it was 6.76 µM; in the assay on SF-539 CNS it was 6.4 µM; with HCT-116 colon, 3.06 µM. The GI50 was 7.76 µM in the assay with A549 NSCLC, 3.39 µM with OVCAR-4 ovarian, 1.73 µM in the assay with RPMI-8226 leukemia and 5.64 µM in the assay with NCI/ADR-RES ovarian. For the same compound, the total growth inhibition concentration (TGI) in the assay with A498 renal was determined as 9.43 µM; in the assay on MALME-3M melanoma, 12.7 µM; with HOP-62 NSCLC, 13.8 µM; in the assay with DU-145 prostate, 13.9 µM; in the assay on SF-539 CNS it was 13.9 µM; in the assay on HCT-116 colon, 10.3 µM. Further, the total growth inhibition concentration (TGI) in the assay on A549 NSCLC was found to be 16.1 µM; in the assay on OVCAR-4 ovarian, 10.5 µM; in the assay with RPMI-8226 leukemia, 10.1 µM; in the assay with NCI/ADR-RES ovarian it was 14.5 µM.

For the compound `COc1cc2c(cc1OC)C(C(c1ccccc1)c1ccccc1)N(C)CC2` (configuration not stated), the concentration for total growth inhibition (TGI) is over 100 µM with A498 renal; 56.2 µM in the assay on MALME-3M melanoma; over 100 µM in the assay with HOP-62 NSCLC; over 100 µM with SF-539 CNS; over 100 µM in the assay on HCT-116 colon; over 100 µM in the assay on A549 NSCLC. Besides, the TGI in the assay on OVCAR-4 ovarian, with RPMI-8226 leukemia and in the assay on NCI/ADR-RES ovarian was over 100 µM in each case.

Take `C[N+](C)([O-])CCOc1cc2c(c3ccccc13)-c1ccccc1C2=O`: the total growth inhibition concentration (TGI) was 60.5 µM with A498 renal; 28.9 µM in the assay with MALME-3M melanoma; 69.6 µM in the assay with HOP-62 NSCLC; 38.4 µM with SF-539 CNS; over 68 µM with HCT-116 colon; 54.6 µM in the assay with A549 NSCLC. Moreover, the TGI was 42.9 µM in the assay with OVCAR-4 ovarian, 44.1 µM in the assay on RPMI-8226 leukemia and over 100 µM with NCI/ADR-RES ovarian.

With `COc1cnc2c(c1)C(=O)c1c-2n(CCCN2CCOCC2)c(=O)c2cc(Cl)ccc12`, the GI50 is over 100 µM with MALME-3M melanoma; 0.274 µM in the assay on HOP-62 NSCLC; 0.41 µM with DU-145 prostate; 0.23 µM in the assay with SF-539 CNS; 0.167 µM in the assay on HCT-116 colon; over 100 µM in the assay with OVCAR-4 ovarian. In addition, the concentration for 50% growth inhibition (GI50) in the assay on RPMI-8226 leukemia is 0.426 µM; in the assay on NCI/ADR-RES ovarian it was 0.259 µM. For the same compound, the concentration for total growth inhibition (TGI) is over 100 µM in the assay with MALME-3M melanoma; 22.4 µM with HOP-62 NSCLC; over 100 µM with DU-145 prostate; 0.65 µM in the assay with SF-539 CNS; over 100 µM with HCT-116 colon; over 100 µM with OVCAR-4 ovarian. The TGI in the assay on RPMI-8226 leukemia and in the assay with NCI/ADR-RES ovarian was over 100 µM each time.

With `NC(=O)c1c(NC(=O)c2ccccc2)sc2c1CCC(=O)C2`, the GI50 with A498 renal was 1.06 µM; with MALME-3M melanoma, 2.14 µM; in the assay on HOP-62 NSCLC it was 3.66 µM; in the assay with DU-145 prostate it was 4.14 µM; in the assay on SF-539 CNS, 0.75 µM; in the assay on A549 NSCLC, 3.58 µM. Besides, the GI50 in the assay with OVCAR-4 ovarian is 0.732 µM; with RPMI-8226 leukemia, 0.248 µM; with NCI/ADR-RES ovarian, 1.28 µM. Also, the concentration for total growth inhibition (TGI) was 17.2 µM in the assay with A498 renal; 5.53 µM in the assay on MALME-3M melanoma; over 100 µM with HOP-62 NSCLC; over 100 µM in the assay with DU-145 prostate; 3.27 µM in the assay with SF-539 CNS; over 100 µM with A549 NSCLC. Further, the concentration for total growth inhibition (TGI) is 2.01 µM in the assay on OVCAR-4 ovarian, 0.751 µM in the assay on RPMI-8226 leukemia and 10.4 µM in the assay on NCI/ADR-RES ovarian.

By TGI is commonly meant the concentration at which net growth stops. Higher therefore signals less potent growth arrest. One may read the GI50 as the concentration giving 50% growth inhibition.
